We go through 23 compounds from patent publication US8658637B2, “Glucocorticoid mimetics, methods of making them, pharmaceutical compositions and uses thereof” (Boehringer Ingelheim International GmbH, priority 2006, dated 2014).

The test system of data set [1] is IL-6 production in human foreskin fibroblast cells. Description: Inhibition of IL-6 Production in Fibroblasts (Cell Assay for Transrepression). The format is cell-based. Conditions: IL-1 stimulated human foreskin fibroblasts; for EC50: read-out: agonistic activity (EC50) by inhibiting IL-6 production in Fibroblasts; for Emax: read-out: efficacy by inhibiting IL-6 production in Fibroblasts. The protocol:
2. Inhibition of IL-6 Production in Fibroblasts (Cell Assay for Transrepression)
Human foreskin fibroblast cells produce IL-6 in response to stimulation by proinflammatory cytokine IL-1.
Human foreskin fibroblast cells (ATCC Cat. No. CRL-2429) are plated on 96 well plates at 5,000 cells per well the day before use, in Iscove's Modified Dulbecco's Media (GibcoBRL Life Technologies Cat. No. 12440-053) supplemented with 10% charcoal filtered FBS (Clonetech Cat. No. SH30068) and Gentamycin (GibcoBRL Life Technologies Cat. No. 15710-064). On the next day, media in the wells is replaced with fresh media. Cells are treated with IL-1 (rhIL-1α, R&D Systems Cat. No. 200-LA) to a final concentration of 1 ng/mL, and with test compounds to final concentrations of 10^−5 M to 10^−8 M, in a total volume of 200 μL per well. Samples are done in duplicates. […] Positive control wells receive IL-1 only and represent maximum (or 100%) amount of IL-6 production. Plates are incubated at 37° C. overnight (15 to 18 hours), and supernatants are harvested at the end of incubation. IL-6 levels in the supernatants are determined by the ELISA kits for IL-6 (MedSystems Diagnostics GmbH, Vienna, Austria, Cat. No. BMS213TEN) according to manufacture's instructions. The extent of inhibition of IL-6 by test compounds is expressed in percentage relative to positive controls. IC50 values of test compounds are derived by non-linear curve fitting.

SMILES strings stand for the structures.

As a reminder, the EC50 is the concentration that produces a half-maximal response. What is called melting point is the temperature of the solid-liquid transition.

In the case of `NC(=O)Cn1cc(C(O)(c2ccc3c(cnn3-c3ccc(F)cc3)c2)C(F)(F)F)c2cccnc21` (centres unmarked) [2-(3-{2,2,2-Trifluoro-1-[1-(4-fluorophenyl)-1H-indazol-5-yl]-1-hydroxyethyl}pyrrolo[2,3-b]pyridin-1-yl)acetamide], in data set [1], the concentration for a half-maximal effect (EC50) was not above 1000 nM and the Emax was more than 50%. With `C=CCn1cc(C(O)(c2ccc3c(cnn3-c3ccc(F)cc3)c2)C(F)(F)F)cc1C(=O)OCC` (centres unmarked) [1-Allyl-4-{2,2,2-trifluoro-1-[1-(4-fluorophenyl)-1H-indazol-5-yl]-1-hydroxyethyl}-1H-pyrrole-2-carboxylic acid ethyl ester], in data set [1], the EC50 was not above 1000 nM and the Emax was more than 50%. For `Cc1cc(C(O)(c2ccc3c(cnn3-c3ccc(F)cc3)c2)C(F)(F)F)c[nH]c1=O` (centres unmarked) [3-Methyl-5-{2,2,2-trifluoro-1-[1-(4-fluorophenyl)-1H-indazol-5-yl]-1-hydroxyethyl}-1H-pyridin-2-one], in data set [1], the half-maximal effective concentration (EC50) is not above 1000 nM and the Emax was more than 50%. As to `[O-][n+]1cccc2c(C(O)(c3ccc4c(cnn4-c4ccc(F)cc4)c3)C(F)(F)F)c[nH]c21` (centres unmarked) [2,2,2-Trifluoro-1-[1-(4-fluorophenyl)-1H-indazol-5-yl]-1-(7-oxy-1H-pyrrolo[2,3-b]pyridin-3-yl)ethanol], in data set [1], the concentration for a half-maximal effect (EC50) is not above 1000 nM and the Emax is more than 50%. Take `C=CCCn1cc(C(O)(c2ccc3c(cnn3-c3ccc(F)cc3)c2)C(F)(F)F)c2ccc(Br)cc21` (centres unmarked) [1-(6-Bromo-1-but-3-enyl-1H-indol-3-yl)-2,2,2-trifluoro-1-[1-(4-fluorophenyl)-1H-indazol-5-yl]ethanol]: in data set [1], the EC50 is not above 1000 nM and the Emax was more than 50%. For the compound `NC(=O)Cn1cc(C(O)(c2ccc3c(cnn3-c3ccc(F)cc3)c2)C(F)(F)F)c2ccnc(Cl)c21` (centres unmarked) [2-(7-Chloro-3-{2,2,2-trifluoro-1-[1-(4-fluorophenyl)-1H-indazol-5-yl]-1-hydroxyethyl}pyrrolo[2,3-c]pyridin-1-yl)acetamide], in data set [1], the EC50 was not above 1000 nM and the Emax was more than 50%. Compound `C=CCn1cc(C(O)(c2ccc3c(cnn3-c3ccc(F)cc3)c2)C(F)(F)F)c2ccn(C)c(=O)c21` (centres unmarked) [Example 75, 1-Allyl-6-methyl-3-{2,2,2-trifluoro-1-[1-(4-fluorophenyl)-1H-indazol-5-yl]-1-hydroxyethyl}-1,6-dihydropyrrolo[2,3-c]pyridin-7-one] displayed a melting point of 91 to 93 °C.

For the compound `CNC(=O)Cn1cc(C(O)(c2ccc3c(cnn3-c3ccc(F)cc3)c2)C(F)(F)F)c2ccc(Br)cc21` (centres unmarked) [2-(6-Bromo-3-{2,2,2-trifluoro-1-[1-(4-fluorophenyl)-1H-indazol-5-yl]-1-hydroxyethyl}indol-1-yl)-N-methylacetamide], in data set [1], the EC50 is not above 1000 nM and the Emax was more than 50%.

With `OC(c1ccc2c(cnn2-c2ccc(F)cc2)c1)(c1c[nH]c2ncccc12)C(F)(F)F` (centres unmarked) [2,2,2-Trifluoro-1-[1-(4-fluorophenyl)-1H-indazol-5-yl]-1-(1H-pyrrolo[2,3-b]pyridin-3-yl)ethanol], in data set [1], the EC50 was not above 1000 nM and the Emax is more than 50%. The corresponding values for `OC(c1ccc2c(cnn2-c2ccc(F)cc2)c1)(c1cn(CCN2CCOCC2)c2ccccc12)C(F)(F)F` (centres unmarked) [2,2,2-Trifluoro-1-[1-(4-fluorophenyl)-1H-indazol-5-yl]-1-[1-(2-morpholin-4-ylethyl)-1H-indol-3-yl]ethanol] are not above 1000 nM and more than 50%. On to `Cc1cc(C(O)(c2ccc3c(cnn3-c3ccc(F)cc3)c2)C(F)(F)F)cn(CC(N)=O)c1=O` (centres unmarked) [(3-Methyl-2-oxo-5-{2,2,2-trifluoro-1-[1-(4-fluorophenyl)-1H-indazol-5-yl]-1-hydroxyethyl}-2H-pyridin-1-yl)acetamide], for which, in data set [1], the EC50 is not above 1000 nM and the Emax is more than 50%. The corresponding values for `NC(=O)CCn1cc(C(O)(c2ccc3c(cnn3-c3ccc(F)cc3)c2)C(F)(F)F)c2ccccc21` (centres unmarked) [3-(3-{2,2,2-Trifluoro-1-[1-(4-fluorophenyl)-1H-indazol-5-yl]-1-hydroxyethyl}indol-1-yl)propionamide] are not above 1000 nM and more than 50%. `C=CCn1cc(C(O)(c2ccc3c(cnn3-c3ccc(F)cc3)c2)C(F)(F)F)c2ccc(Br)cc21` (centres unmarked) [1-(1-Allyl-6-bromo-1H-indol-3-yl)-2,2,2-trifluoro-1-[1-(4-fluorophenyl)-1H-indazol-5-yl]ethanol]: in data set [1], the EC50 is not above 1000 nM and the Emax was more than 50%. On to `Cn1cc(C(O)(c2ccc3c(c2)nnn3-c2ccc(F)cc2)C(F)(F)F)c2ccccc21` (centres unmarked) [2,2,2-Trifluoro-1-[1-(4-fluorophenyl)-1H-benzotriazol-5-yl]-1-(1-methyl-1H-indol-3-yl)ethanol], for which, in data set [1], the EC50 was not above 1000 nM and the Emax is more than 50%. In the case of `Cn1cc(C(O)(c2ccc3c(cnn3-c3ccc(F)nc3)c2)C(F)(F)F)c2ccccc21` (centres unmarked) [2,2,2-Trifluoro-1-[1-(6-fluoropyridin-3-yl)-1H-indazol-5-yl]-1-(1-methyl-1H-indol-3-yl)ethanol], in data set [1], the 50% effective concentration (EC50) was not above 1000 nM and the Emax is more than 50%.

As to `CC1(C)OCC(Cn2cc(C(O)(c3ccn4c(-c5ccc(F)cc5)ncc4c3)C(F)(F)F)c3ccccc32)O1` (centres unmarked) [1-[1-(2,2-Dimethyl-1,3-dioxolan-4-ylmethyl)-1H-indol-3-yl]-2,2,2-trifluoro-1-[3-(4-fluorophenyl)imidazo[1,5-a]pyridin-7-yl]ethanol], in data set [1], the EC50 is not above 1000 nM and the Emax is more than 50%. Turning to `C=CCCn1cc(C(O)(c2ccc3c(cnn3-c3ccc(F)cc3)c2)C(F)(F)F)c2ccccc21` (centres unmarked) [1-(1-But-3-enyl-1H-indol-3-yl)-2,2,2-trifluoro-1-[1-(4-fluorophenyl)-1H-indazol-5-yl]ethanol], in data set [1], the EC50 is not above 1000 nM and the Emax is more than 50%.

Take `C=CCn1cc(C(O)(c2ccc3c(cnn3-c3ccc(F)cc3)c2)C(F)(F)F)c2ncn(C)c(=O)c21` (centres unmarked) [5-Allyl-3-methyl-7-{2,2,2-trifluoro-1-[1-(4-fluorophenyl)-1H-indazol-5-yl]-1-hydroxyethyl}-3,5-dihydropyrrolo[3,2-d]pyrimidin-4-one]: in data set [1], the EC50 was not above 1000 nM and the Emax is more than 50%. In turn, `OC(c1cnc2c(cnn2-c2ccccc2)c1)(c1c[nH]c2ncccc12)C(F)(F)F` (centres unmarked) registered a melting point of 137 to 141 °C.

For `C[C@H](O)Cn1cc(C(O)(c2ccc3c(cnn3-c3ccc(F)cc3)c2)C(F)(F)F)c2ccccc21` (stereo partly drawn) [(S)-1-(3-{2,2,2-Trifluoro-1-[1-(4-fluorophenyl)-1H-indazol-5-yl]-1-hydroxyethyl}indol-1-yl)propan-2-ol], in data set [1], the concentration for a half-maximal effect (EC50) is not above 1000 nM and the Emax was more than 50%. As for `Cn1ccc2c(C(O)(c3ccc4c(cnn4-c4ccc(F)cc4)c3)C(F)(F)F)cn(CC(N)=O)c2c1=O` (centres unmarked) [2-(6-Methyl-7-oxo-3-{2,2,2-trifluoro-1-[1-(4-fluorophenyl)-1H-indazol-5-yl]-1-hydroxyethyl}-6,7-dihydropyrrolo[2,3-c]pyridin-1-yl)acetamide], in data set [1], the EC50 was not above 1000 nM and the Emax was more than 50%. As for `NC(=O)Cn1cc(C(O)(c2ccc3c(cnn3-c3cccnc3)c2)C(F)(F)F)c2ccccc21` (centres unmarked) [2-{3-[2,2,2-Trifluoro-1-hydroxy-1-(1-pyridin-3-yl-1H-indazol-5-yl)ethyl]indol-1-yl}acetamide], in data set [1], the half-maximal effective concentration (EC50) was not above 1000 nM and the Emax was more than 50%. Turning to `CCOC(=O)Cn1cc(C(O)(c2ccc3c(cnn3-c3ccc(F)cc3)c2)C(F)(F)F)c2ccccc21` (centres unmarked) [(3-{2,2,2-Trifluoro-1-[1-(4-fluorophenyl)-1H-indazol-5-yl]-1-hydroxyethyl}indol-1-yl)acetic acid ethyl ester], in data set [1], the EC50 is not above 1000 nM and the Emax is more than 50%.
